Experimental data from US12214092B2, “Systems and methods for treating biological fluids” (Cerus Corporation, priority 2017, dated 2025).

Assays:
[1] = test system: platelets; assay: Platelet quality, platelets in 100% plasma: 75 μM amotosalen + 340 nm (~6.4 or ~7.2 J/cm^2) or 150 μM + INT-100 (~3.6 J/cm^2, with CAD); type: cell-based
[2] = S-59 photoconversion in apheresis platelets in 100% plasma, 15 μM S-59, HPLC; type: physicochemical
From the text: Additional units were illuminated with the INT-100 device at ˜3.6 J/cm^2 for comparison or maintained as an untreated control.

[3] = Residual amotosalen in whole-blood derived plasma, 50 μM, ~6.4 J/cm^2, HPLC; type: physicochemical
From the text: This pool and split format was repeated four times to generate four replicates.

Compound: Cc1oc2c(C)c3oc(=O)cc(C)c3cc2c1COCCN [S-59, 3-(2-aminoethoxymethyl)-2,5,9-trimethylfuro[3,2-g]chromen-7-one]
- Morphology (Kunicki score) ([1]; 340/~6.4, Pre-UVA): 265.50
- P-selectin (CD62P) ([1]; 340/~6.4, Pre-UVA): 31.95
- pCO2 ([1]; 340/~6.4, Pre-UVA): 55.20 mmHg
- pH @ 22° C. ([1]; 340/~6.4, Pre-UVA): 7.29
- pH @ 37° C. ([1]; 340/~6.4, Pre-UVA): 7.06
- pO2 ([1]; 340/~6.4, Pre-UVA): 37.60 mmHg
- Extent of Shape Change (ESC) ([1]; 340/~7.2, D5): 26.73
- Hypotonic Shock Response (HSR) ([1]; 340/~7.2, D5): 51.87
- Morphology (Kunicki score) ([1]; 340/~7.2, D5): 287.67
- P-selectin (CD62P) ([1]; 340/~7.2, D5): 45.00
- pCO2 ([1]; 340/~7.2, D5): 37.47 mmHg
- pH @ 22° C. ([1]; 340/~7.2, D5): 7.11
- pH @ 37° C. ([1]; 340/~7.2, D5): 6.88
- pO2 ([1]; 340/~7.2, D5): 49.33 mmHg
- Extent of Shape Change (ESC) ([1]; 340/~7.2, D7): 19.47
- Hypotonic Shock Response (HSR) ([1]; 340/~7.2, D7): 49.47
- Morphology (Kunicki score) ([1]; 340/~7.2, D7): 254.67
- P-selectin (CD62P) ([1]; 340/~7.2, D7): 56.93
- pCO2 ([1]; 340/~7.2, D7): 32.70 mmHg
- pH @ 22° C. ([1]; 340/~7.2, D7): 6.94
- pH @ 37° C. ([1]; 340/~7.2, D7): 6.72
- pO2 ([1]; 340/~7.2, D7): 56.07 mmHg
- pCO2 ([1]; 340/~7.2, Post-UVA): 47.23 mmHg
- pH @ 22° C. ([1]; 340/~7.2, Post-UVA): 7.32
- pH @ 37° C. ([1]; 340/~7.2, Post-UVA): 7.09
- pO2 ([1]; 340/~7.2, Post-UVA): 32.93 mmHg
- Extent of Shape Change (ESC) ([1]; 340/~7.2, Pre-UVA): 23.50
- Hypotonic Shock Response (HSR) ([1]; 340/~7.2, Pre-UVA): 49.67
- Morphology (Kunicki score) ([1]; 340/~7.2, Pre-UVA): 279.33
- P-selectin (CD62P) ([1]; 340/~7.2, Pre-UVA): 27.77
- pCO2 ([1]; 340/~7.2, Pre-UVA): 54.43 mmHg
- pH @ 22° C. ([1]; 340/~7.2, Pre-UVA): 7.31
- pH @ 37° C. ([1]; 340/~7.2, Pre-UVA): 7.08
- pO2 ([1]; 340/~7.2, Pre-UVA): 31.77 mmHg
- Extent of Shape Change (ESC) ([1]; INT-100, D5): 25.20
- Hypotonic Shock Response (HSR) ([1]; INT-100, D5): 55.10
- Morphology (Kunicki score) ([1]; INT-100, D5): 265.67
- P-selectin (CD62P) ([1]; INT-100, D5): 39.07
- pCO2 ([1]; INT-100, D5): 31.83 mmHg
- pH @ 22° C. ([1]; INT-100, D5): 7.16
- pH @ 37° C. ([1]; INT-100, D5): 6.93
- pO2 ([1]; INT-100, D5): 69.77 mmHg
- Extent of Shape Change (ESC) ([1]; INT-100, D7): 19.82
- Hypotonic Shock Response (HSR) ([1]; INT-100, D7): 46.00
- Morphology (Kunicki score) ([1]; INT-100, D7): 274.67
- P-selectin (CD62P) ([1]; INT-100, D7): 58.77
- pCO2 ([1]; INT-100, D7): 28.47 mmHg
- pH @ 22° C. ([1]; INT-100, D7): 6.96
- pH @ 37° C. ([1]; INT-100, D7): 6.74
- pO2 ([1]; INT-100, D7): 70.37 mmHg
- pCO2 ([1]; INT-100, Post-UVA): 54.60 mmHg
- pH @ 22° C. ([1]; INT-100, Post-UVA): 7.17
- pH @ 37° C. ([1]; INT-100, Post-UVA): 6.94
- pO2 ([1]; INT-100, Post-UVA): 62.87 mmHg
- Extent of Shape Change (ESC) ([1]; INT-100, Pre-UVA): 23.50
- Hypotonic Shock Response (HSR) ([1]; INT-100, Pre-UVA): 49.67
- Morphology (Kunicki score) ([1]; INT-100, Pre-UVA): 279.33
- P-selectin (CD62P) ([1]; INT-100, Pre-UVA): 27.77
- pCO2 ([1]; INT-100, Pre-UVA): 54.43 mmHg
- pH @ 22° C. ([1]; INT-100, Pre-UVA): 7.31
- pH @ 37° C. ([1]; INT-100, Pre-UVA): 7.08
- pO2 ([1]; INT-100, Pre-UVA): 31.77 mmHg
- S-59 concentration post-illumination ([2]; 340 nm LED 1× (~3.6 J/cm^2), <LOQ): 0.86 µM
- S-59 concentration post-illumination ([2]; 340 nm LED 2× (~7.2 J/cm^2), <LOQ): 0.19 µM
- S-59 concentration post-illumination ([2]; 340 nm LED 3× (~10.8 J/cm^2), <LOQ): 0.00 µM
- S-59 concentration post-illumination ([2]; INT-100, ~3.6 J/cm^2): 4.11 µM
- residual amotosalen concentration ([3]; 340 nm device): 4.65 µM
- residual amotosalen concentration ([3]; INT-100 device): 17.06 µM
